Values quoted from earlier work, collected in patent US3968207A, “Method of controlling fleas and ticks on cats and dogs” (priority 1975, dated 1976).

Test system: lice
Conditions: single spray treatment; cited from earlier work

In the case of `CCOP(=S)(OCC)Oc1nc(Cl)c(Cl)cc1Cl` [Dursban, O,O-diethyl O-(3,5,6-trichloro-2-pyridyl)phosphorothioate], the “control of lice on cattle” value is listed as “effective control”.
